According to publication PMC11009648, “Development of an orally bioavailable mSWI/SNF ATPase degrader and acquired mechanisms of resistance in prostate cancer” (Proceedings of the National Academy of Sciences of the …, 2024):
“Also recorded” adds a separate entry of the source. Read-outs that look alike come from different tables or passages of the source.

Legend:
22Rv1 AUR-2 cells = experiment: CellTiter-Glo cell viability assay in AU-15330-resistant 22Rv1 AUR-2 cells (SMARCA4 mutation); assay type: cell-based, human; conditions: dose-response (Fig. S4C)
Description: The rising importance of the mSWI/SNF complex as a therapeutic target and the success ([32], [33]) of developing next-generation PROTAC degraders targeting the mSWI/SNF complex prompted us to proactively study potential resistance mechanisms that cancer cells may develop in response to this class of compounds. To achieve this, we cultured 22Rv1 cells in either DMSO or a lethal dose of AU-15330 for 1 mo, refreshing the drug twice a week, until resistant cells emerged. Upon obtaining a population of resistant cells, we unbiasedly characterized the genomic and transcriptomic alterations using whole-exome sequencing and bulk RNA sequencing (RNA-seq), respectively (Fig. 3A).
Cells were seeded onto 96-well plates in appropriate culture media and allowed to adhere overnight prior to treatment. The next day, a nine-point serial dilution of the compounds was prepared and added to the plates. After treatment, the cells were then incubated for an additional 5 d. […] The signal (luminescence) from each well was determined using an Infinite M1000 Pro plate reader (Tecan). Relative viability was determined by dividing the signal from each well by the average of the control condition in each experiment. Finally, the data were analyzed and plotted using GraphPad Prism.

[1] = system: SMARCA4 (BRG1) and PBRM1 in VCaP cells; experiment: Immunoblot of target degradation in VCaP cells; assay type: cell-based, human; conditions: 4 h, identical treatment conditions
Procedure: Lysates were prepared using radioimmunoprecipitation assay buffer (Thermo Fisher) with cOmpleteTM protease inhibitor cocktail tablets (Sigma-Aldrich) added. Total protein for each sample was determined using the DC Protein Assay (Bio-Rad) according to the manufacturer’s instructions. A standardized quantity of protein was resolved using NuPAGE Tris-Acetate Protein Gel (3 to 8%) (Thermo Fisher) or NuPAGE Bis-Tris Protein Gel (4 to 12%) (Thermo Fisher) and probed with primary antibodies as indicated. Following incubation with secondary antibodies conjugated with horseradish peroxidase, membranes were imaged on an Odyssey Fc Imager (LiCOR Biosciences).

[2] = system: mutant forms of SMARCA4 in HEK293 cells; experiment: Immunoblot of overexpressed flag-tagged mutant SMARCA4 in HEK293 cells; assay type: cell-based, human; conditions: 24 h treatment
Description: GFP-SMARCA4 (Addgene, 65391) was used for the SMARCA4 mutation clone. The pLVX-TetOne-Puro-hAXL (Addgene, 124797) backbone was used as a starting point prior to undergoing a series of modifications. The endogenous target gene was removed, and a multiple cloning site (MCS) was inserted downstream of the endogenous promoter. Custom gblocks containing Flag-tagged WT SMARCA4 were synthesized (Integrated DNA Technologies, IDT) and inserted into the MCS. Subsequently, custom gblocks containing SMARCA4-N1540S, SMARCA4-I1551del, or SMARCA4-F1485S were inserted to replace the respective portion of WT SMARCA4. Finally, the TRE3G promoter was replaced with hPGK.
HEK293 cells were seeded overnight and transfected with Lipofectamine 3,000 (Thermo Fisher) according to the manufacturer’s protocol. Media were changed 8 h post transfection and incubated for 48 h prior to conducting further analyses.

[3] = In vivo pharmacokinetics in mice; conditions: plasma; for Cmax: read-out: Cmax/C0
Description: All experimental procedures relating to animal care, handling, and treatment were approved by the Institutional Animal Ethics Committee of Aurigene Oncology Ltd. based on the Committee for Control and Supervision of Experiments on Animals guidelines. Animals were included for experimentation after 1 wk of acclimatization to standard laboratory conditions and were provided with reverse osmosis-treated water and rodent pellet diet ad libitum.
The pharmacokinetic profile of AU-24118 was studied in both mice and rats. For assessment of oral bioavailability, AU-24118 was administered by intravenous (i.v.) and oral (p.o.) routes at 1 mg/kg and 30 mg/kg doses, respectively (n = 3). For the oral arm, AU-24118 was administered as a solution formulation in 10% PEG200, 50% of 20% D-α-Tocopherol polyethylene glycol 1000 succinate and 40% of 1% Tween-80 in water while AU-24118 was formulated in 2% DMA and 10% HPβCD in saline (qs) for the intravenous administration.
Concentrations of AU-24118 were determined in plasma samples using a nonvalidated (fit for purpose) LC–MS/MS method in positive Multiple Reaction Monitoring mode with transition pair of m/z: 633.11→344.00. Either Carbamazepine (with a transition pair of m/z: 237.07→194.10) or Telmisartan (with a transition pair of m/z: 515.16→276.00) were used as internal standards. Sample processing was carried out by protein precipitation followed by evaporation method. Compound concentrations were calculated using Analyst® software 1.7.2 with linear/quadratic regression algorithm (with 1/×2 weighting factor) over a quantification range of 1 ng/mL to 2,500 ng/mL with the low and high ends of this range defining the lower limit of quantitation and upper limit of quantitation, respectively.

[4] = system: VCaP castration-resistant tumor model; experiment: CRPC-VCaP xenograft efficacy study; assay type: in vivo
Procedure: Six-week-old CB17 (male) SCID mice were obtained from the breeding colony at the U-M. For all studies, tumors were measured two or three times per week using digital calipers, and tumor volumes were calculated using the formula (π/6) (L × W2), where L is length and W is width of the tumor. At study endpoint, mice were killed, and tumors were extracted and weighed. […] Once tumors grew to a palpable size (~400 mm^3), the mice were physically castrated. Once those tumors regained their precastration size, mice were then randomized and treated with either 15 mg/kg AU-24118 or vehicle by oral gavage 3 d per week with or without enzalutamide (10 mg/kg) by oral gavage 5 d per week for 4 wk.
IHC was performed on 4 µm formalin-fixed, paraffin-embedded tissue sections using BRG1 (SMARCA4), AR, FOXA1, ERG and C-Myc. The IHC process was performed on the Ventana ULTRA automated slide staining system using the Omnimap and Ultraview Universal DAB detection kit. The antibody details are provided in SI Appendix, Table S1. The following commercial kits from Roche-Ventana Medical System were used: Discovery CC1 (Cat No. 950-500), Discovery CC2 (Cat No. 950-123), OptiView Universal DAB Detection Kit (Cat No. 760-700), and OmniMap Universal DAB Detection Kit (Cat No. 760-149).
The TUNEL and In Situ Cell Death Detection Kits (TMR Red #12156792910; Roche Applied Science) were used to examine apoptosis, following the manufacturer’s instructions. Briefly, fixed sections were permeabilized with Triton X-100 and then washed in phosphate-buffered saline. Labeling was carried out at 37 °C for 60 min by addition of a reaction buffer that contained enzymes. A Zeiss Axiolmager M1 microscope was used to obtain images.

[5] = mouse, iv, CD1 Mice, I.V. 1mg/kg
[6] = mouse, po, CD1 Mice, P.O. 30mg/kg
[7] = mouse, mice, oral, 10mg/kg, dose escalation (Fig. 1G)
[8] = mouse, mice, oral, 30mg/kg, dose escalation (Fig. 1G)
[9] = after 5 d of treatment, 15 mg/kg

Compound: Nc1nnc(-c2ccccc2O)cc1-c1ccc(N2CCC(N3CCC(c4ccc(OC5CCC(=O)NC5=O)cc4)CC3)CC2)cc1 (stereo not shown) [AU-24118]
- ability to cause a decrease in cell viability (22Rv1 AUR-2 cells): unable
- degradation of SMARCA4 and PBRM1, immunoblot [1]: comparable degradation efficacy of SMARCA4 and PBRM1 to AU-15330
- degradation of overexpressed mutant SMARCA4, immunoblot [2]: resistant to degradation
- bioavailability ([3]; CD1, mouse, oral, mice, i.v. 1 mg/kg, p.o. 30 mg/kg, read-out: Oral bioavailability (%F)): 33.4%
- AUC(0-inf) [3, 5]: 1680 ng·h/mL
- AUC(0-t) [3, 5]: 1630 ng·h/mL
- half-life ([3]; mouse, iv, CD1 Mice, I.V. 1mg/kg, read-out: Beta t1/2 (converted)): 4.76 h
- clearance ([3]; mouse, iv, CD1 Mice, I.V. 1mg/kg, read-out: CI (Clearance)): 10 mL/min/kg
- Cmax [3, 5]: 443 ng/mL
- Vd ([3]; mouse, iv, CD1 Mice, I.V. 1mg/kg, read-out: Vdss): 3.3 L/kg
- AUC(0-t) [3, 6]: 16300 ng·h/mL
- Cmax [3, 6]: 1030 ng/mL
- Tmax [3, 7]: 6 h
- Cmax [3, 7]: 345 ng/mL
- AUC(0-t) [3, 8]: 14700 ng·h/mL
- Tmax [3, 8]: 3 h
- Cmax [3, 8]: 1190 ng/mL
- Tmax ([3]; mouse, mice, oral, 100mg/kg, dose escalation (Fig. 1G)): 4 h
- body weight changes ([4]; CRPC VCaP xenograft mice, throughout the treatments): no significant body weight changes
- apoptosis in tumors (cleaved PARP, TUNEL) [4, 9]: induced apoptosis
- downregulation of direct targets (SMARCA2, SMARCA4, PBRM1) and lineage proteins (AR, ERG, C-Myc, PSA) in tumors, Western blot [4, 9]: robust downregulation
- tumor response ([4]; castrated CB17 SCID mice, enzalutamide 10 mg/kg oral gavage five times weekly, AU-24118 15 mg/kg oral gavage three times weekly): regression in every tumor; also recorded: regressed every tumor in the cohort
